The results in this text go back to US20250065147A1, “SYSTEMS AND METHODS FOR PHOTODYNAMIC THERAPY” (Virginia Commonwealth University, priority 2023, published 2025).

One data set concerns HCC (human liver cancer). Put plainly: PDT with ICG (809 nm laser) in PDOX mouse model. The class given is in vivo. The source says:
(§1) We set up a study of PDT with ICG using patient derived orthotopic xenograft (PDOX) mouse model (FIG. 7). In the PDOX model, the mouse liver has human liver cancer. […] We then found the optimal laser wavelength that liver-ICG can absorb with maximum intensity which was 809 nm (FIG. 2). We set up the laser to treat HCC with PDT with the setting numbers in Table 1.

Data set [1] is described as follows: ICG distribution after administration in patient derived orthotopic xenograft (PDOX) mouse model. The class given is in vivo.
Excerpt: as §1
On the technique in general: Xenograft models place foreign cells or tissue in a host animal.

A short description of data set [2]: Optimal laser wavelength that liver-ICG can absorb with maximum intensity. It counts as physicochemical. The settings on record: FIG. 2.
Excerpt: as §1

Several values for one entry are separate records, joined by “and”; a condition that tells them apart may be missing. Identical values can stand only once. Entries after “also recorded” stand apart in the source; their conditions may differ.

Turning to `CC1(C)C(/C=C/C=C/C=C/C=C2\N(CCCCS(=O)(=O)O)c3ccc4ccccc4c3C2(C)C)=[N+](CCCCS(=O)(=O)[O-])c2ccc3ccccc3c21` [ICG, indocyanine green], the “finding on MRI after treatment” value in the data set on HCC (human liver cancer) (2 weeks after treatment, PDOX mouse) is on record as “tumor necrosis”. Moreover, the “pathologic evaluation of HCC” value in the data set on HCC (human liver cancer) (specimen after PDT with ICG) is recorded as “apoptosis of HCC”. For the same compound, the ICG localisation entry in data set [1] (at 0 hr after ICG administration) is “present in the whole body”; in data set [1] (at 6 hrs after ICG administration), “present in the liver”; in data set [1] (at 24 hrs after ICG administration), “confined to a liver tumor; also recorded: confined in only HCC inside the liver”. The “optimal laser wavelength that liver-ICG can absorb with maximum intensity” value in data set [2] was 805-815 nm and 809 nm.
